The test system of assay [1] is Split3WJ.1_up_5IB+Split3WJ.1_down_3FAM (trans 3WJ as 1:1 mix). Briefly: Fluorescence quenching binding assay. The following applies: trans 3WJ Split3WJ.1; two concentration points; FIG. 109. The procedure:
This assay will be used to test binding of compounds for RNA three way junction (such as a 38 nt construct). This is a fluorescence quenching assay utilizing FAM as fluorescence tag and Iowa Black as quencher. Tags are attached at the 3′ and 5′ end, respectively. Stable formation of MW upon compound binding would lead to quenching of the FAM fluorescence due to close proximity of the Iowa Black tag. Assay readout: FAM (485-520 nm) Fluorescence Intensity.
(§1) Assay sample buffer used: 10 mM CacoK pH 7.2, 30 mM NaCl. Buffer preparation in Dnase/Rnase Free distilled water (Gibco Life Technologies).
(§2) Tool compounds provided as dry powder are prepared as 50 mM stock solution in 100% d6-DMSO. Stock solutions of 50 mM concentration in d6-DMSO are stored at RT.
Sample plate: Greiner cat #784076, black, 384 (Dilution plate: Greiner REF 781101, PS-Microplate, 384 well, clear). Fluorescence Intensity device: Envision 1040285
Daily fresh (10 ml): 1 ml 100 mM CacoK pH 7.2 and 0.3 ml 1 M NaCl filled up to 10 ml with Dnase/Rnase Free distilled water […]
Calibration of the expected fluorescence signal at various RNA concentrations in either CacoK or NaPO4 buffers was performed first. Experiments in buffers containing salt show distinct fluorescence quenching behavior. […]
The fluorescence quenching experiment was repeated for compounds Ark0000013 and Ark0000014 to measure binding with: […]

A further assay relates to RNA3WJ_1.1.1_5IB_3FAM. Briefly: Thermal shift binding assay. The following applies: 1 μM RNA, 8 μM compound.
Source text: (§3) Purpose: Test binding of compounds for RNA three way junction (for example, a construct of 38 nt). Thermal shift assay based on established fluorescence quenching assay utilizing FAM as fluorescence tag and Iowa Black as quencher. Tags were attached at the 3′ and 5′ end, respectively. Stable formation of 3WJ upon compound binding would lead to quenching of the FAM fluorescence due to close proximity of the Iowa Black tag. Thermal unfolding leads to increase of fluorescence emission. Assay readout: FAM (465-510 nm) Thermal Shift.
as §1, §2
(§4) Sample plate: Roche, Light Cycler480 Multiwell Plate96, white, REF 04729692001. (Dilution plate: Greiner REF 781101, PS-Microplate, 384 well, clear). Thermal Shift device: Roche, Light Cycler480.
(§5) Daily fresh (10 ml): 1 ml 100 mM CacoK pH 7.2 and 0.3 ml 1 M NaCl filled up to 10 ml with Dnase/Rnase Free distilled water.
(§6) Dilute the RNA 1:10 (final 10 μM) in Assay Buffer.
(§7) Heat up the diluted RNA up to 90° C. for 5 min (sealed Eppendorf Tube).
(§8) Cool down the RNA probe slowly to RT.
(§9) Dilute the compounds to 800 μM in DMSO (Assay: 8 μM).
(§10) 78.4 μL Assay Buffer are pipetted into Greiner REF 781101, PS-Microplate, 384 (each well needed).
(§11) Add 0.8 μL of the RNA-Solution ([…]).
(§12) Add 0.8 μL Compound-Solution ([…]).
(§13) Final concentrations in the sample: 1 μM RNA, 8 μM compound, 1% DMSO
(§14) Pipet 20 μL Sample Solution into Roche, Light Cycler480 Multiwell Plate96, white, REF 04729692001.
(§15) When sample transfer is finished, seal the plate with a clear topseal (part of REF 04729692001).
(§16) Centrifuge the plate with a table-top device to spin down the samples.
(§17) Measure the 96 plate with the LightCycler480 (Channel: 480/510 nm; Temperature: 41-91° C.).
(§18) Analyse measurement-data with the MeltingCurveGenotyping Mode.
(§19) Settings: Acquisition mode: continuous; Ramp rate: 0.1 C.°/sec; Acquisition: 6/C.° Melt Curve Genotyping for All Samples
(§20) Melting curves analysis show melting temperature (Tm) of ˜51° C. Range of RNA concentrations was tested and assay window was determined (conc. range of 0.5-1 μM yields best results). The choice of buffer also affected the Tm. RNA constructs were tested under different buffer conditions (especially in presence of salt) in the thermal shift assay. […] CacoK with 30 mM salt at 1 μM RNA conc. was used to assess compound effects on 3WJ stability. […] These conditions were used for screening test compounds.

The next assay concerns RNA3WJ_1.1.0_5IB_3FAM. The assay can be described thus: Thermal shift binding assay. The following applies: 1 μM RNA, 8 μM compound.
Source text: as §3, §1, §2, §4, §5, §6, §7, §8, §9, §10, §11, §12, §13, §14, §15, §16, §17, §18, §19, §20

In another assay the test system is RNA3WJ_2.1.0_5IB_3FAM. The assay can be described thus: Thermal shift binding assay. The following applies: 1 μM RNA, 8 μM compound.
Source text: as §3, §1, §2, §4, §5, §6, §7, §8, §9, §10, §11, §12, §13, §14, §15, §16, §17, §18, §19, §20

In assay [2] the test system is RNA3WJ_0.0.0_5IB_3FAM (3WJ_0.0.0_5IB_3FAM) RNA three way junction. Briefly: Thermal shift binding assay. The note with it: RNA3WJ_0.0.0_5IB_3FAM; 1 μM RNA, 8 μM compound, 1% DMSO; 10 mM CacoK pH 7.2, 30 mM NaCl.
Source text: as §3, §1, §2, §4, §5, §6, §7, §8, §9, §10, §11, §12, §13, §14, §15, §16, §17, §18, §19, §20

In a further assay the test system is RNA3WJ_2.0.0_5IB_3FAM. Briefly: Thermal shift binding assay. The following applies: 1 μM RNA, 8 μM compound.
Source text: as §3, §1, §2, §4, §5, §6, §7, §8, §9, §10, §11, §12, §13, §14, §15, §16, §17, §18, §19, §20

Molecules are shown by their SMILES.

Take `CN(CCCN)CCCNC(=O)c1ccc2c(c1)C1c3cc(C(=O)NCCCN(C)CCCN)ccc3C2c2ccc(C(=O)NCCCN(C)CCCN)cc21` [Ark0000013, N^2,N^7,N^15-tris(3-((3-aminopropyl)(methyl)amino)propyl)-9,10-dihydro-9,10-[1,2]benzenoanthracene-2,7,15-tricarboxamide]: in assay [1], the “Effect in fluorescence quenching assay” value is “significant concentration dependent effect”. The “Melting temp [° C.] + cmpd” value stood at 82.9 °C in the assay with RNA3WJ_1.1.1_5IB_3FAM; 85.5 °C in the assay with RNA3WJ_1.1.0_5IB_3FAM; 45.7 °C in the assay with RNA3WJ_2.1.0_5IB_3FAM; 84.1 °C in assay [2]; 84.3 °C in the assay with RNA3WJ_2.0.0_5IB_3FAM. The “Temp. Shift [° C.]” value in the assay with RNA3WJ_1.1.1_5IB_3FAM worked out at 20.7 °C; in the assay on RNA3WJ_1.1.0_5IB_3FAM, 22.2 °C; with RNA3WJ_2.1.0_5IB_3FAM, 3.8 °C; in assay [2] it was 24.2 °C; in the assay with RNA3WJ_2.0.0_5IB_3FAM, 22.1 °C.
On to `NCCCCCCCNC(=O)c1ccc2c(c1)C1c3cc(C(=O)NCCCCCCCN)ccc3C2c2ccc(C(=O)NCCCCCCCN)cc21` [Ark0000014, N^2,N^7,N^15-tris(7-aminoheptyl)-9,10-dihydro-9,10-[1,2]benzenoanthracene-2,7,15-tricarboxamide], for which the “Effect in fluorescence quenching assay” value in assay [1] is given as “smaller effect”. In addition, the “Melting temp [° C.] + cmpd” value in the assay with RNA3WJ_1.1.1_5IB_3FAM was determined as 64.3 °C; in the assay with RNA3WJ_1.1.0_5IB_3FAM it was 65.1 °C; in the assay with RNA3WJ_2.1.0_5IB_3FAM, 42.0 °C; in assay [2], 61.5 °C; in the assay with RNA3WJ_2.0.0_5IB_3FAM, 64.4 °C. Besides, the “Temp. Shift [° C.]” value in the assay with RNA3WJ_1.1.1_5IB_3FAM came to 2.1 °C; with RNA3WJ_1.1.0_5IB_3FAM, 1.8 °C; in the assay with RNA3WJ_2.1.0_5IB_3FAM, 0.1 °C; in assay [2], 1.6 °C; in the assay with RNA3WJ_2.0.0_5IB_3FAM, 2.2 °C.

The values above are taken from US20220281860A1, “COMPOUNDS AND METHODS OF TREATING RNA-MEDIATED DISEASES” (Arrakis Therapeutics, Inc., priority 2016, published 2022).
